Data as given in US10030027B2, “Soluble guanylate cyclase stimulators” (MERCK SHARP & DOHME CORP., priority 2015, dated 2018).

Columns and labels:
[1] = target: human recombinant sGC enzyme (Homo sapiens (Human), UniProt Q02108+Q02153); assay: Size Exclusion Chromatography (SEC) competition binding assay using [3H] Ex-77B as the radioligand; conditions: [3H] Ex-77B radioligand, 24 hours at 37° C.
In short: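 Recombinant human sGC binding measured by competition against tritiated Ex-77B radioligand, with non-specific binding defined by 1 μM unlabeled Ex-77B.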

sGC α1/β1 heterodimer = sGC α1/β1 heterodimer (Homo sapiens (Human), UniProt Q02108+Q02153); assay: Cell-based sGC functional assay (cyclic GMP assay for sGC activator: CASA assay); design: % Activation: concentration or dose not given beside the values; conditions: CHO-K1/sGC cells; for Emax: CHO-K1, activity expressed as percentage of compound A (standard), read-out: % Activation; for EC50: inflection point, 4P fit, read-out: IP
In short: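 CHO-K1 cells stably expressing human sGC α1/β1 were pre-incubated 30 min at 25° C with or without 1 μM DETA-NO, then exposed to compound for 1 hr at 37° C with 0.5 mM IBMX and 2.5% DMSO final. Intracellular cGMP was measured by HTRF, expressed as % of reference sGC-HDA maximum; inflection point and maximum fold induction came from 4-parameter fits.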

| SMILES | Ki [1] [nM] | Emax (sGC α1/β1 heterodimer) [%] | EC50 (sGC α1/β1 heterodimer) [nM] | % Activation (sGC α1/β1 heterodimer; activity expressed as percentage of compound A (standard)) [%] |
| --- | --- | --- | --- | --- |
| Cc1cccc(Cn2nc(-c3nc(N)c4c(n3)NC(=O)[C@@]4(C)c3ccc(CCC(=O)O)cc3)c3ccc(Cl)cc32)c1 [Example 66B, (S)-3-(4-{4-amino-2-[6-chloro-1-(3-methylbenzyl)-1H-indazol-3-yl]-5-methyl-6-oxo-6,7-dihydro-5H-pyrrolo[2,3-d]pyrimidin-5-yl}phenyl)propanoic acid] | 0.495 | 107 | 238 | – |
| CC(C)(Cc1coc(C2(C)C(=O)Nc3nc(-c4nn(CC5CCCC5)c5cc(Cl)ccc45)nc(N)c32)n1)C(=O)O (stereo not drawn) [Example 161A, 3-(2-{4-amino-2-[6-chloro-1-(cyclopentylmethyl)-1H-indazol-3-yl]-5-methyl-6-oxo-6,7-dihydro-5H-pyrrolo[2,3-d]pyrimidin-5-yl}-1,3-oxazol-4-yl)-2,2-dimethyl-propanoic acid] | 0.081 | 121 | 291 | – |
| CC(C)(Cc1csc([C@]2(C)C(=O)Nc3nc(-c4nn(Cc5ccccc5F)c5ncc(F)cc45)nc(N)c32)n1)C(=O)O [Example 91B, (S)-3-(2-{4-amino-2-[5-fluoro-1-(2-fluorobenzyl)-1H-pyrazolo[3,4-b]pyridin-3-yl]-5-methyl-6-oxo-6,7-dihydro-5H-pyrrolo[2,3-d]pyrimidin-5-yl}-1,3-thiazol-4-yl)-2,2-dimethylpropanoic acid] | 0.18 | 123 | 132 | – |
| C[C@@]1(c2ccc(CCC(=O)O)cc2)C(=O)Nc2nc(-c3nn(CC4CCCC4)c4ccccc34)nc(N)c21 [Example 227B, (S)-3-(4-{4-amino-2-[1-(cyclopentyl-methyl)-1H-indazol-3-yl]-5-methyl-6-oxo-6,7-dihydro-5H-pyrrolo[2,3-d]pyrimidin-5-yl}phenyl)propanoic acid] | 0.146 | 63.5 | 74 | – |
| CC1(c2ccc(CCC(=O)O)c(C#N)c2)C(=O)Nc2nc(-c3nn(CCC(F)(F)C(F)(F)F)c4cc(Cl)ccc34)nc(N)c21 (stereo not drawn) [Example 120B, 3-(4-{4-Amino-2-[6-chloro-1-(3,3,4,4,4-pentafluorobutyl)-1H-indazol-3-yl]-5-methyl-6-oxo-6,7-dihydro-5H-pyrrolo[2,3-d]pyrimidin-5-yl}-2-cyanophenyl)propanoic acid] | 0.41 | 127 | 1930 | – |
| CC[C@H](NC(=O)CCc1ccc([C@]2(C)C(=O)Nc3nc(-c4nn(Cc5ccccc5F)c5ncccc45)nc(N)c32)cc1)C(=O)O [Example 105B, (5S,2S)-2-(3-(4-{4-amino-2-[1-(2-fluorobenzyl)-1H-pyrazolo[3,4-b]pyridin-3-yl]-5-methyl-6-oxo-6,7-dihydro-5H-pyrrolo[2,3-d]pyrimidin-5-yl}phenyl)propanamido)butanoic acid] | 0.042 | 97 | 2160 | – |
| Cc1cccc(Cn2nc(-c3nc(N)c4c(n3)NC(=O)[C@@]4(C)c3nc(CC(C)(C)C(=O)O)cs3)c3ccc(Cl)cc32)c1F [Example 188A, (S)-3-(2-{4-amino-2-[6-chloro-1-(2-fluoro-3-methyl-benzyl)-1H-indazol-3-yl]-5-methyl-6-oxo-6,7-dihydro-5H-pyrrolo[2,3-d]pyrimidin-5-yl}-1,3-thiazol-4-yl)-2,2-dimethyl-propanoic acid] | 0.1 | 124 | 109 | – |
| CC(C)(Cn1cc(C2(C)C(=O)Nc3nc(-c4nn(Cc5ccccc5F)c5cc(F)ccc45)nc(N)c32)cn1)C(=O)O (stereo not drawn) [Example 192A, 3-(4-{4-amino-2-[6-fluoro-1-(2-fluorobenzyl)-1H-indazol-3-yl]-5-methyl-6-oxo-6,7-dihydro-5H-pyrrolo[2,3-d]pyrimidin-5-yl}-1H-pyrazol-1-yl)-2,2-dimethyl-propanoic acid] | 0.116 | 103 | 1040 | – |
| Cc1oc(C2(C)C(=O)Nc3nc(-c4nn(Cc5cccc(F)c5)c5cc(F)ccc45)nc(N)c32)nc1CC(C)(C)C(=O)O (stereo not drawn) [Example 198B, 3-(2-{4-amino-2-[6-fluoro-1-(3-fluorobenzyl)-1H-indazol-3-yl]-5-methyl-6-oxo-6,7-dihydro-5H-pyrrolo[2,3-d]pyrimidin-5-yl}-5-methyl-1,3 - oxazol-4-yl)-2,2-dimethyl-propanoic acid] | 0.107 | 134 | 1070 | – |
| CC1CCC(Cn2nc(-c3nc(N)c4c(n3)NC(=O)C4(C)c3nc(CC(C)(C)C(=O)O)co3)c3cccnc32)CC1 (single isomer, unassigned) [Example 126AB, 3-{2-[4-amino-5-methyl-2-{1-[4-methylcyclohexylmethyl]-1H-pyrazolo[3,4-b]pyridin-3-yl}-6-oxo-6,7-dihydro-5H-pyrrolo[2,3-d]pyrimidin-5-yl]-1,3-oxazol-4-yl}-2,2-dimethylpropanoic acid] | 0.077 | – | 199 | 109.2 |
| Cc1cccc(Cn2nc(-c3nc(N)c4c(n3)NC(=O)C4(C)c3nc(CC(C)(C)C(=O)O)co3)c3ccc(Cl)cc32)c1F (stereo not drawn) [Example 187A, 3-(2-{4-amino-2-[6-chloro-1-(2-fluoro-3-methyl-benzyl)-1H-indazol-3-yl]-5-methyl-6-oxo-6,7-dihydro-5H-pyrrolo[2,3-d]pyrimidin-5-yl}-1,3-oxazol-4-yl)-2,2-dimethyl-propanoic acid] | 0.029 | 97.1 | 244 | – |
| CC1(c2ccc(CC(=O)O)cc2)C(=O)Nc2nc(-c3nn(CCC(F)(F)C(F)(F)F)c4ncccc34)nc(N)c21 (stereo not drawn) [Example 118A, 2-(4-{4-amino-5-methyl-6-oxo-2-[1-(3,3,4,4,4-pentafluorobutyl)-1H-pyrazolo[3,4-b]pyridin-3-yl]-6,7-dihydro-5H-pyrrolo[2,3-d]pyrimidin-5-yl}phenyl)acetic acid] | 0.166 | 86 | 3510 | – |
| Cc1ccccc1Cn1nc(-c2nc(N)c3c(n2)NC(=O)[C@@]3(C)c2ccc(CCC(=O)O)cc2)c2ccc(Cl)cc21 [Example 68B, (S)-3-(4-{4-amino-2-[6-chloro-1-(2-methylbenzyl)-1H-indazol-3-yl]-5-methyl-6-oxo-6,7-dihydro-5H-pyrrolo[2,3-d]pyrimidin-5-yl}phenyl)propanoic acid] | 3.1 | 109 | 568 | – |
| CC(C)(CCc1coc(C2(C)C(=O)Nc3nc(-c4nn(Cc5cccc(F)c5)c5cc(F)ccc45)nc(N)c32)n1)C(=O)O (stereo not drawn) [Example 197B, 4-(2-{4-amino-2-[6-fluoro-1-(3-fluorobenzyl)-1H-indazol-3-yl]-5-methyl-6-oxo-6,7-dihydro-5H-pyrrolo[2,3-d]pyrimidin-5-yl}-1,3-oxazol-4-yl)-2,2-dimethyl-butanoic acid] | 0.162 | 106 | 125 | – |
| Cc1ccc2c(-c3nc(N)c4c(n3)NC(=O)[C@@]4(C)c3ccc(CCC(=O)O)cc3)nn(Cc3ccc(C)c(F)c3F)c2n1 [Example 25B, (S)-3-(4-{4-amino-2-[1-(2,3-difluoro-4-methylbenzyl)-6-methyl-1H-pyrazolo[3,4-b]pyridin-3-yl]-5-methyl-6-oxo-6,7-dihydro-5H-pyrrolo[2,3-d]pyrimidin-5-yl}phenyl)propanoic acid] | 0.262 | 147 | 201 | – |
